# According to patent US20030203819A1, “Synergistically acting herbicidal mixtures” (priority 1998, published 2003):
# Legend:
# Format in all cases: in vivo
# [1] = system: Cyperus species; test: Herbicidal action in the field (post-emergence treatment)
# Text: (§1) The mixtures according to the invention were applied pre- or post-emergence (foliar treatment). The herbicidal compounds of component B were applied in the formulation in which they are present as commercially available product.
# (§2) Some of the experiments were greenhouse experiments and some were field trials on mini plots (on a site with sandy loam (pH 6.2 to 7.0) or sandy clay (pH 5.0 to 6.7) as the soil).
# (§3) The harmful plants differed with regard to size and developmental state; on average, they were 5 to 20 cm long, depending on the growth habit.
# (§4) The herbicidally active compounds of components A) and B) were applied in succession or jointly, in the latter case in some cases as a tank mix and in some cases as a readymix, in the form of emulsions, aqueous solutions or suspensions, the vehicle being water ([…]). In the case of the field trials, application was effected with the aid of a mobile plot sprayer.
# (§5) The test period extended over 3 to 8 weeks, and the stands were also observed at later points in time.
# (§6) Damage by the herbicidal compositions was evaluated with reference to a scale of 0% to 100% in comparison with untreated control plots. 0 means no damage and 100 means complete destruction of the plants.
# (§7) In these examples, the value E at which only an additive effect of the individual active ingredients is to be expected was calculated by the method of S. R. Colby (Calculating synergistic and antagonistic responses of herbicide combinations, Weeds 15, 20 pp (1967).
# [2] = system: Amaranthus retroflexus; test: Herbicidal action in the greenhouse (post-emergence treatment)
# Text: as §1, §2, §3, §4, §5, §6, §7
# [3] = system: Anthemis mixta; test: Herbicidal action in the field (post-emergence treatment); details: carfentrazone-ethyl 30 g/ha a.s.
# Text: as §1, §2, §3, §4, §5, §6, §7
# [4] = system: Galium aparine; test: as above
# Text: as §1, §2, §3, §4, §5, §6, §7
# [5] = system: Echinochloa crus-galli; test: Herbicidal action in the greenhouse (post-emergence treatment)
# Text: as §1, §2, §3, §4, §5, §6, §7
# [6] = system: Setaria faberi; test: Herbicidal action in the field (post-emergence treatment)
# Text: as §1, §2, §3, §4, §5, §6, §7
# [7] = system: Bidens pilosa; test: as above
# Text: as §1, §2, §3, §4, §5, §6, §7
# [8] = system: Abutilon theophrasti; test: Herbicidal action in the greenhouse (post-emergence treatment)
# Text: as §1, §2, §3, §4, §5, §6, §7
# [9] = system: Ipomoea purpurea var. diversifolia; test: Herbicidal action in the field (post-emergence treatment)
# Text: as §1, §2, §3, §4, §5, §6, §7
# [10] = system: Stellaria media; test: as above
# Text: as §1, §2, §3, §4, §5, §6, §7
# [11] = system: Veronica ssp.; test: Herbicidal action in the greenhouse (post-emergence treatment)
# Text: as §1, §2, §3, §4, §5, §6, §7
# [12] = system: Amaranthus retroflexus; test: Herbicidal action in the greenhouse (pre-emergence treatment); details: Dimethenamid 125 g/ha a.s.
# Text: as §1, §2, §3, §4, §5, §6, §7
# [13] = system: Digitaria sanguinalis; test: as above; details: Dimethenamid 125 g/ha a.s.
# Text: as §1, §2, §3, §4, §5, §6, §7
# [14] = system: Cyperus iria; test: as above; details: Dimethenamid 62.5 g/ha a.s.
# Text: as §1, §2, §3, §4, §5, §6, §7
# [15] = system: Sorghum halepense; test: Herbicidal action in the field (post-emergence treatment)
# Text: as §1, §2, §3, §4, §5, §6, §7
# [16] = system: Panicum miliaceum; test: as above; details: dimethenamid 841 g/ha a.s.
# Text: as §1, §2, §3, §4, §5, §6, §7
# [17] = system: Brachiaria plantaginea; test: as above; details: pendimethalin 990 g/ha a.s.
# Text: as §1, §2, §3, §4, §5, §6, §7
# [18] = system: Setaria faberi; test: Herbicidal action in the greenhouse (post-emergence treatment); details: glufosinate-ammonium 31.2 g/ha a.s.
# Text: as §1, §2, §3, §4, §5, §6, §7
# [19] = system: Digitaria adscendens; test: Herbicidal action in the field (post-emergence treatment)
# Text: as §1, §2, §3, §4, §5, §6, §7
# [20] = system: Ipomoea acuminata; test: as above
# Text: as §1, §2, §3, §4, §5, §6, §7
# [21] = system: Ipomoea ssp.; test: Herbicidal action in the greenhouse (post-emergence treatment)
# Text: as §1, §2, §3, §4, §5, §6, §7
# [22] = system: Alopecurus myosuroides; test: as above
# Text: as §1, §2, §3, §4, §5, §6, §7
# [23] = system: Richardia brasiliensis; test: Herbicidal action in the field (post-emergence treatment); details: Bentazone 1440 g/ha a.s.
# Text: as §1, §2, §3, §4, §5, §6, §7
# [24] = system: Alopecurus myosuroides; test: as above; details: fenoxaprop-ethyl 83 g/ha a.s.
# Text: as §1, §2, §3, §4, §5, §6, §7
# [25] = system: Abutilon theophrasti; test: as above
# Text: as §1, §2, §3, §4, §5, §6, §7
# [26] = system: Setaria viridis; test: as above; details: Sethoxydim 160 g/ha a.s.
# Text: as §1, §2, §3, §4, §5, §6, §7
# [27] = system: Sorghum bicolor; test: as above; details: atrazine 840 g/ha a.s.
# Text: as §1, §2, §3, §4, §5, §6, §7
# [28] = system: Phalaris spec.; test: as above; details: 2,4-D 500 g/ha a.s.
# Text: as §1, §2, §3, §4, §5, §6, §7
# [29] = system: Setaria viridis; test: Herbicidal action in the greenhouse (post-emergence treatment); details: isoxaflutole 31.2 g/ha a.s.
# Text: as §1, §2, §3, §4, §5, §6, §7
# [30] = system: Digitaria sanguinalis; test: Herbicidal action in the field (post-emergence treatment); details: Cycloxydim 100 g/ha a.s.
# Text: as §1, §2, §3, §4, §5, §6, §7
# [31] = system: Chenopodium album; test: as above; details: Cycloxydim 100 g/ha a.s.
# Text: as §1, §2, §3, §4, §5, §6, §7
# [32] = system: Geranium carolinianum; test: as above; details: glyphosate 840 g/ha a.s.
# Text: as §1, §2, §3, §4, §5, §6, §7
# [33] = system: Ipomoea lacunosa; test: as above; details: nicosulfuron 35 g/ha a.s.
# Text: as §1, §2, §3, §4, §5, §6, §7
# [34] = glufosinate-ammonium 400 g/ha a.s.
compound,measurement,setting,value
"Cc1cc(Cl)ccc1OCC(=O)O [MCPA, reference compound]",Damage,[1]; MCPA 600 g/ha a.s.,5%
"CCOC(=O)C(Cl)Cc1cc(-n2nc(C)n(C(F)F)c2=O)c(F)cc1Cl (stereo not drawn) [carfentrazone-ethyl, reference compound]",pest or weed control at 0.9 g/ha,"[2]; Amaranthus retroflexus, post-emergence, read-out: Damage, carfentrazone-ethyl 0.9 g/ha a.s.",60%
same,Damage,[3],0%
"CCOC(=O)/C(Cl)=C/c1cc(N2C(=O)C3=C(CCCC3)C2=O)ccc1Cl [cinidon-ethyl, reference compound]",Damage,[4]; cinidon-ethyl 7.8 g/ha a.s.,90%
"COc1cc(OC)nc(Sc2cccc(Cl)c2C(=O)O)n1 [pyrithiobac-sodium, reference compound]",Damage,[5]; pyrithiobac-sodium 7.8 g/ha a.s.,10%
"CCCCCCCCSC(=O)Oc1cc(Cl)nnc1-c1ccccc1 [pyridate, reference compound]",Damage,[6]; pyridate 450 g/ha a.s.,0%
same,Damage,[7]; pyridate 450 g/ha a.s.,25%
"CCOCN(C(=O)CCl)c1c(C)cccc1CC [acetochlor, reference compound]",Damage,[8]; acetochlor 31.2 g/ha a.s.,0%
"Nc1cnn(-c2ccccc2)c(=O)c1Cl [chloridazon, reference compound]",Damage,[9]; chloridazon 1720 g/ha a.s.,40%
imazamethabenz [reference compound],Damage,[10]; imazamethabenz 525 g/ha a.s.,0%
"COCC(C)N(C(=O)CCl)c1c(C)csc1C (stereo not drawn) [Dimethenamid, dimethenamid, reference compound]",pest or weed control at 500 g/ha,"[2]; Amaranthus retroflexus, post-emergence, Dimethenamnid 500 g/ha a.s., read-out: Damage",10%
same,Damage,[11]; Dimethenamid 500 g/ha a.s. (Table 43),70%
same,Damage,[11]; Dimethenamid 500 g/ha a.s. (Table 45),70%
same,Damage,[12],80%
same,Damage,[13],80%
same,Damage,[14],95%
same,Damage,[15]; dimethenamid 1120 g/ha a.s.,7%
same,Damage,[16],23%
"CCC(CC)Nc1c([N+](=O)[O-])cc(C)c(C)c1[N+](=O)[O-] [pendimethalin, reference compound]",Damage,[17],0%
"COc1nc(NC(=O)NS(=O)(=O)c2ccccc2C(F)(F)F)nc(C(F)(F)F)n1 [N-[[[4-methoxy-6-(trifluoromethyl)-1,3,5-triazin-2-yl]amino]carbonyl]-2-(trifluoromethyl)benzenesulfonamide, reference compound]",Damage,[6]; the benzenesulfonamide (B2) 50 g/ha a.s.,0%
"CC(C)C1(C)N=C(c2nc3ccccc3cc2C(=O)O)NC1=O (stereo not drawn) [imazaquin, reference compound]",Damage,[7]; imazaquin 150 g/ha a.s.,45%
"CP(=O)(O)CCC(N)C(=O)O (stereo not drawn) [glufosinate-ammonium, reference compound]",Damage,[18],65%
same,Damage,[5]; glufosinate-ammonium 15.6 g/ha a.s.,0%
same,Damage,[19]; [34],75%
same,Damage,[20]; [34],75%
"CC(C)C1(C)N=C(c2ncccc2C(=O)O)NC1=O (stereo not drawn) [imazapyr, reference compound]",Damage,[21]; imazapyr 62.5 g/ha a.s.,85%
same,Damage,[22]; imazapyr 250 g/ha a.s.,90%
"O=C(O)c1c(Cl)ccc2cc(Cl)cnc12 [Quinclorac, quinclorac, reference compound]",Damage,[21]; Quinclorac 250 g/ha a.s.,70%
same,Damage,[11]; Quinclorac 500 g/ha a.s.,80%
"CC(C)N1C(=O)c2ccccc2NS1(=O)=O [Bentazone, bentazone, reference compound]",Damage,[23],77%
"CCOC(=O)C(C)Oc1ccc(Oc2nc3ccc(Cl)cc3o2)cc1 (stereo not drawn) [fenoxaprop-ethyl, reference compound]",pest or weed control at 31.2 g/ha,"[2]; Amaranthus retroflexus, post-emergence, fenoxaprop-ethyl (title: fenoxaprop-P-ethyl) 31.2 g/ha a.s., read-out: Damage",0%
same,Damage,[24],82%
same,Damage,[4]; fenoxaprop-ethyl 83 g/ha a.s.,0%
"CCC/C(=N\OCC)C1=C(O)CC(CC(C)SCC)CC1=O (stereo not drawn) [Sethoxydim, sethoxydim, reference compound]",Damage,[25]; Sethoxydim 160 g/ha a.s.,0%
same,Damage,[26],93%
"N#Cc1cc(Br)c(O)c(Br)c1 [bromoxynil, reference compound]",Damage,[4]; bromoxynil 470 g/ha a.s.,84%
"CCNc1nc(Cl)nc(NC(C)C)n1 [atrazine, reference compound]",Damage,[6]; atrazine 1120 g/ha a.s.,20%
same,Damage,[25]; atrazine 1120 g/ha a.s.,32%
same,Damage,[27],27%
"CC(C)N(C(=O)COc1nnc(C(F)(F)F)s1)c1ccc(F)cc1 [flufenacet, reference compound]",Damage,[19]; flufenacet 600 g/ha a.s.,58%
"O=C(O)COc1ccc(Cl)cc1Cl [2,4-D, reference compound]",Damage,"[2]; 2,4-D 62.5 g/ha a.s.",20%
same,Damage,"[8]; 2,4-D 62.5 g/ha a.s.",40%
same,Damage,[28],20%
"CS(=O)(=O)c1cc(C(F)(F)F)ccc1C(=O)c1cnoc1C1CC1 [isoxaflutole, reference compound]",Damage,[21]; isoxaflutole 62.5 g/ha a.s.,55%
same,Damage,[29],30%
"COC(=O)c1c(Cl)nn(C)c1S(=O)(=O)NC(=O)Nc1nc(OC)cc(OC)n1 [halosulfuron-methyl, reference compound]",pest or weed control at 7.8 g/ha,"[2]; Amaranthus retroflexus, post-emergence, read-out: Damage, halosulfuron-methyl 7.8 g/ha a.s.",80%
same,Damage,[22]; halosulfuron-methyl 31.2 g/ha a.s.,45%
"CN(C)C(=O)Nc1ccc(Cl)c(Cl)c1 [diuron, reference compound]",Damage,[22]; diuron 250 g/ha a.s.,80%
"CCCC(=NOCC)C1=C(O)CC(C2CCCSC2)CC1=O (stereo not drawn) [Cycloxydim, cycloxydim, reference compound]",Damage,[30],81%
same,Damage,[31],0%
"O=C(O)CNCP(=O)(O)O [glyphosate, reference compound]",Damage,[15]; glyphosate 840 g/ha a.s.,74%
same,Damage,[32],97%
"COc1cc(OC)nc(NC(=O)NS(=O)(=O)c2ncccc2C(=O)N(C)C)n1 [nicosulfuron, reference compound]",pest or weed control at 1.9 g/ha,"[2]; Amaranthus retroflexus, post-emergence, nicosulfuron 1.9 g/ha a.s., read-out: Damage",65%
same,Damage,[33],39%
"COc1cc(OC)n2nc(S(=O)(=O)Nc3c(Cl)ccc(C)c3Cl)nc2n1 [metosulam, reference compound]",Damage,[11]; metosulam 1.9 g/ha a.s.,40%
"CS(=O)(=O)c1ccc(C(=O)C2C(=O)CCCC2=O)c(Cl)c1 [sulcotrione, reference compound]",pest or weed control at 250 g/ha,"[2]; Amaranthus retroflexus, post-emergence, read-out: Damage, sulcotrione 250 g/ha a.s.",45%
same,Damage,[20]; sulcotrione 300 g/ha a.s.,86%
"CC(C)c1ccc(NC(=O)N(C)C)cc1 [isoproturon, reference compound]",Damage,[10]; isoproturon 1000 g/ha a.s.,94%
"CSc1nnc(C(C)(C)C)c(=O)n1N [metribuzin, reference compound]",Damage,[7]; metribuzin 200 g/ha a.s.,38%
same,Damage,[1]; metribuzin 200 g/ha a.s.,50%
"O=C(O)c1cc(Oc2ccc(C(F)(F)F)cc2Cl)ccc1[N+](=O)[O-] [acifluorfen, reference compound]",Damage,[4]; acifluorfen 100 g/ha a.s.,48%
"CCc1cnc(C2=NC(C)(C(C)C)C(=O)N2)c(C(=O)O)c1 (stereo not drawn) [imazethapyr, reference compound]",Damage,[9]; imazethapyr 70 g/ha a.s.,58%
same,Damage,[20]; imazethapyr 70 g/ha a.s.,33%
